Source: ChEMBL document CHEMBL5463725, “Data for DCP probe BAY-277” (2023)

Key:
Details in all cases: Compound concentration 10.0 uM
[1] = biological target: Serine/threonine-protein kinase Nek5 (Homo sapiens) (UniProt Q6P3R8); experiment: Inhibition of NEK5(h) at 10.0 µM in the Eurofins Kinase panel
[2] = biological target: TRAF2 and NCK-interacting protein kinase (Homo sapiens) (UniProt Q9UKE5); experiment: Inhibition of TNIK(h) at 10.0 µM in the Eurofins Kinase panel
[3] = biological target: PI3-kinase p110-delta/p85-alpha (Homo sapiens) (UniProt P27986+O00329); experiment: Inhibition of PI3 Kinase (p110d/p85a)(h) at 10.0 µM in the Eurofins Kinase panel; assay type: protein-complex assay
[4] = biological target: STE20/SPS1-related proline-alanine-rich protein kinase (Homo sapiens) (UniProt Q9UEW8); experiment: Inhibition of STK39(h) at 10.0 µM in the Eurofins Kinase panel
[5] = biological target: Serine/threonine-protein kinase Sgk1 (Homo sapiens) (UniProt O00141); experiment: Inhibition of SGK(h) at 10.0 µM in the Eurofins Kinase panel
Sequence of Serine/threonine-protein kinase Sgk1 (Homo sapiens) (O00141 whole entry): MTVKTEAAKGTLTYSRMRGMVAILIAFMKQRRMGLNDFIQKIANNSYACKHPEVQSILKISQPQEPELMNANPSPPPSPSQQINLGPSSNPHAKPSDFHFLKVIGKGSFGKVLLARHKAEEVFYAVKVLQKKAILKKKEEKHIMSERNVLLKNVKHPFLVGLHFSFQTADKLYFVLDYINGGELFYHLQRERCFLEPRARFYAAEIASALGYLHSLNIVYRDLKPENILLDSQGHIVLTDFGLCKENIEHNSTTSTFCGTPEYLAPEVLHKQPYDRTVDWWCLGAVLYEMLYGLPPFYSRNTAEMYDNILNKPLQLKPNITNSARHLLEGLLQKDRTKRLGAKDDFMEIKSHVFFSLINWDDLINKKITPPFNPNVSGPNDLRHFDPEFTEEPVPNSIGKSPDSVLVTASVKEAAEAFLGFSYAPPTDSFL

[6] = biological target: Tyrosine-protein kinase Fgr (Homo sapiens) (UniProt P09769); experiment: Inhibition of Fgr(h) at 10.0 µM in the Eurofins Kinase panel
Sequence of Tyrosine-protein kinase Fgr (Homo sapiens) (P09769 2-529 limits assumed): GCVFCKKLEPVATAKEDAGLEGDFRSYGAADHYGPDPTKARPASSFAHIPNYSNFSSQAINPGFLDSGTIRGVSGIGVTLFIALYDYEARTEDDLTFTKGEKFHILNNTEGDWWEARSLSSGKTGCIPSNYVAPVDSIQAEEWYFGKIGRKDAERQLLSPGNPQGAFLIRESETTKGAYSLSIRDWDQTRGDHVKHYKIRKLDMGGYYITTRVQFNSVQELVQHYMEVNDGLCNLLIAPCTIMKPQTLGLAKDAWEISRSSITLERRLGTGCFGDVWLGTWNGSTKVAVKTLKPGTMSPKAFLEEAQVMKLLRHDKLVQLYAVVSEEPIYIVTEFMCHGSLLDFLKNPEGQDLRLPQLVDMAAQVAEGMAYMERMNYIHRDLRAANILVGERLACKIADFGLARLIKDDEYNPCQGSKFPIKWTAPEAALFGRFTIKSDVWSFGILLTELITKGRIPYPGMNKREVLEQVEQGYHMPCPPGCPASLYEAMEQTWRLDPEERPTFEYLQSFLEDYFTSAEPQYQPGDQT

[7] = biological target: Serine/threonine-protein kinase 26 (Homo sapiens) (UniProt Q9P289); experiment: Inhibition of MST4(h) at 10.0 µM in the Eurofins Kinase panel
Sequence of Serine/threonine-protein kinase 26 (Homo sapiens) (Q9P289 2-416 limits assumed): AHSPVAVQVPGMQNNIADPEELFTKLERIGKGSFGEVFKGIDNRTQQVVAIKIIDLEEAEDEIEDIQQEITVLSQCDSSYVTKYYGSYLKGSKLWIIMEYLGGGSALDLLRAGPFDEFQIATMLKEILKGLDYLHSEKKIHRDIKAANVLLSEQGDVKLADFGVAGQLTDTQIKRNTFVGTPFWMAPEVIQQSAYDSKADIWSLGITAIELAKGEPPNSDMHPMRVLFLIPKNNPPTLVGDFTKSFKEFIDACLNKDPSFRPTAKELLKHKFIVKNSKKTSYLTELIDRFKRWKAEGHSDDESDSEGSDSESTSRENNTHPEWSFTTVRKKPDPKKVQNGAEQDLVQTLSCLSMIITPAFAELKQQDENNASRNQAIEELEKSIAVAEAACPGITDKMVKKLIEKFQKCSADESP

[8] = biological target: Wee1-like protein kinase 2 (Homo sapiens) (UniProt P0C1S8); experiment: Inhibition of Wee1B(h) at 10.0 µM in the Eurofins Kinase panel
Sequence of Wee1-like protein kinase 2 (Homo sapiens) (P0C1S8 whole entry, looked up): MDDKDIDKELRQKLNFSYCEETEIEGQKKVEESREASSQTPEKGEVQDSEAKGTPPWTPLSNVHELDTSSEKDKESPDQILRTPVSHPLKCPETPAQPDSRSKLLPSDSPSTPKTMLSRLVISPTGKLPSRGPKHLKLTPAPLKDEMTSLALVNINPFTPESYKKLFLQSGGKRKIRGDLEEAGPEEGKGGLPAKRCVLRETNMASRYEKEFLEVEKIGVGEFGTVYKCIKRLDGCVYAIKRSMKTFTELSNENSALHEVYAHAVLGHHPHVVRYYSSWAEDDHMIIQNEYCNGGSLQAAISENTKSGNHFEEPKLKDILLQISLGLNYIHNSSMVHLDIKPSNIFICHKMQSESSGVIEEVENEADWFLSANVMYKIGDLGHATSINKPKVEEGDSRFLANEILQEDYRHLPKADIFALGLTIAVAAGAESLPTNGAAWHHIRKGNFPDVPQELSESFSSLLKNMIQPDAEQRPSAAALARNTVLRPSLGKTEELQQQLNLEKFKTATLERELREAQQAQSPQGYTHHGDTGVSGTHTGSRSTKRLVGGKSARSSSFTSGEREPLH

Sequence of TRAF2 and NCK-interacting protein kinase (Homo sapiens) (Q9UKE5 whole entry, looked up): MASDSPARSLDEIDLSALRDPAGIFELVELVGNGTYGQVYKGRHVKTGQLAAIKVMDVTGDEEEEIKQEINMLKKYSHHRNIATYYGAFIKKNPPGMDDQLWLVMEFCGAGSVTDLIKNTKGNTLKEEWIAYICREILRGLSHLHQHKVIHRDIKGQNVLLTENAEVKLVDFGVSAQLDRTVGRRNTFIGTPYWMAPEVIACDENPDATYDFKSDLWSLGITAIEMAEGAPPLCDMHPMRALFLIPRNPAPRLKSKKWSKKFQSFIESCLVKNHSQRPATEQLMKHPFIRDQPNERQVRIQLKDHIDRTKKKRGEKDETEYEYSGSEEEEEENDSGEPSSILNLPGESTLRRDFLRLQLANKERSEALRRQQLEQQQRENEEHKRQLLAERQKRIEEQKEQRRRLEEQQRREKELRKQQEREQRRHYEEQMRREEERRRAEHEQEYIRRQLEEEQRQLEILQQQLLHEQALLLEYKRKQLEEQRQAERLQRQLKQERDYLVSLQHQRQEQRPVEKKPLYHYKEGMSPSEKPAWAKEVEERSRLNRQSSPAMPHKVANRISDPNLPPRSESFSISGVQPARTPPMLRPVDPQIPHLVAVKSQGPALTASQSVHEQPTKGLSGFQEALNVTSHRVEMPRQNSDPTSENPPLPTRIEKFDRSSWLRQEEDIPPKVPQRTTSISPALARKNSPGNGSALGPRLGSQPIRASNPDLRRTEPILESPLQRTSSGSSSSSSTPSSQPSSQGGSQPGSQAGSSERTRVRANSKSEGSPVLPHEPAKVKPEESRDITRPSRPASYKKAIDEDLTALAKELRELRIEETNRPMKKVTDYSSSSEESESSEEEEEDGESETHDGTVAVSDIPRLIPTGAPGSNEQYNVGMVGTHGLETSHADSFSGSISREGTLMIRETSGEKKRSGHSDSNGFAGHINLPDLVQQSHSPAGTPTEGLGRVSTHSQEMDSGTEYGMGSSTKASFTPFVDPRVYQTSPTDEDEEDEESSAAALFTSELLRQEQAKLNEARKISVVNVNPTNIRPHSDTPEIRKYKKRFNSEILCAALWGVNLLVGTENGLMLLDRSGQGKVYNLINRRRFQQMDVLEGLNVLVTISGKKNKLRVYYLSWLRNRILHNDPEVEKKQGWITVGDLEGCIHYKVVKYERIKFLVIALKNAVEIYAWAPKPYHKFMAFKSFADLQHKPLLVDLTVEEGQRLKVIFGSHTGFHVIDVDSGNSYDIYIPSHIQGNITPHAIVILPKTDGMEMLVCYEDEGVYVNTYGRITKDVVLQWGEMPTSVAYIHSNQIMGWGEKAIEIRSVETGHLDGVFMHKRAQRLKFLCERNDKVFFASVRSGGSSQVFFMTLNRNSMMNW
Sequence of Serine/threonine-protein kinase Nek5 (Homo sapiens) (Q6P3R8 whole entry): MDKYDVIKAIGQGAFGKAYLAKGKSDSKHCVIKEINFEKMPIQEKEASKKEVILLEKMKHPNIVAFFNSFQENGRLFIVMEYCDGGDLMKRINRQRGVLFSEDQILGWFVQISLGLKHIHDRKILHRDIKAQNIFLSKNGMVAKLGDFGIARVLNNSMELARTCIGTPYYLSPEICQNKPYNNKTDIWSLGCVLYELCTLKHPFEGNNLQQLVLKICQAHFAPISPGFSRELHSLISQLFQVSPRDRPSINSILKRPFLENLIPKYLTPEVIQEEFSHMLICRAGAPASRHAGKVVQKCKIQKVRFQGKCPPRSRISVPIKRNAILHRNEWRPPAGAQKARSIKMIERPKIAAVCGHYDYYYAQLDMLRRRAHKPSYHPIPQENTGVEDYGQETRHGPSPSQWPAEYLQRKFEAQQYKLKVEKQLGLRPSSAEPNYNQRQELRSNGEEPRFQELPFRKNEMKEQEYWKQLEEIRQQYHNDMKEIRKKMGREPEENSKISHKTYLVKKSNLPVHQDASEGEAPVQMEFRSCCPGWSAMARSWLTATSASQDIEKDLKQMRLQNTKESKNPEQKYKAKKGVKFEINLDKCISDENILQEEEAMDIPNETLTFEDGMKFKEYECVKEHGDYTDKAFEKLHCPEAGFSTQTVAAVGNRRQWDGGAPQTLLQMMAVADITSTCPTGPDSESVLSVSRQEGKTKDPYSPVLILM

Row | Structure (SMILES) | inhibition [1] [%] | inhibition [2] [%] | inhibition [3] [%] | inhibition [4] [%] | inhibition [5] [%] | inhibition [6] [%] | inhibition [7] [%] | inhibition [8] [%]
1 | O=C1NCCCC1N1Cc2cc(C3CCN(C(=O)CCCCCN4CCC(c5ccc(Oc6nn7cnnc7c7c6CCCC7)cc5)CC4)CC3)ccc2C1=O (stereo not drawn) | 17.5 | 12.5 | 11.6 | 11.5 | 10.8 | 10.1 | 10.1 | –
2 | O=C1CCC(N2Cc3cc(C4CCN(C(=O)CCCCCN5CCC(c6ccc(Oc7nn8cnnc8c8c7CCCC8)cc6)CC5)CC4)ccc3C2=O)C(=O)N1 (stereo not drawn) | – | – | – | – | – | – | – | 10.3
